US11617741B1, “Method for inhibiting growth of bacteria” (priority 2021, dated 2023)
Converted amounts (≈) assume the structure as drawn. Marks after values point to notes of the source that are not given here.

Legend:
[1] = tested on: B. subtilis glyQS Stem I specifier loop; assay: UV-monitored thermodynamic stability measurements of stem I constructs; assay type: binding, Bacillus subtilis
Protocol: Thermodynamic parameters were derived from four UV-monitored destabilizations and four renaturations of chemically synthesized wild-type and mutant truncated B. subtilis glyQS Stem I specifier loops in the absence and presence of PKZ18 (10 mM Na2HPO4 and 10 mM KH2PO4; final pH 6.8). The absorbance was collected at 260 nm and was performed using a Varian Cary 3 UV-visible spectrophotometer equipped with a Peltier temperature control accessory. The temperature was increased at a rate of 1° C. per minute from 5 to 85° C. Absorbance data at 260 nm were collected as a function of temperature at a rate of four data points per minute. All experiments were performed simultaneously with a control cell containing buffer only. The error calculated is the error of the mean.

S. aureus N315 (MRSA) = assay: Antibiotic resistance frequency (fluctuation assay); assay type: cell-based, Staphylococcus aureus; details: MRSA
Excerpt: Gentamicin on BHI agar was used as a control.

glyQS T-box = assay: qRT-PCR transcriptional read-through of T-box-regulated glyQS (confirmation of inhibition of T-box mechanism); assay type: cell-based, Bacillus subtilis 1A5; details: confirmation of inhibition of T-box mechanism from qRT-PCR assay
Excerpt: Sample preparation of RNA and cDNA.

B. subtilis 168 [2] = tested on: B. subtilis 168
Protocol: Gentamicin on BHI agar was used as a control. In short, MRSA and B. subtilis were grown overnight in BHI, and 3-hour day cultures at the optical density of A620 of 0.1 were started for both organisms. The optical density after 3 hours of growth was measured; cultures were then pelleted and resuspended to give 10^11 CFU/ml by optical density. CFU of 10^11 per OD were plated in total; 100 μl of the cells were then plated on BHI agar containing either 128 μg/m1PKZ18 or 64 μg/m1PKZ18-22. Serial dilutions of the cells were plated on plain BHI agar in order to calculate the CFU/ml, which was calculated as the number of colonies found on the plates divided by the total number of bacteria plated. CFU means colony forming units, a measure of live bacteria.

[3] = biological target: Bacillus subtilis tyrS T-box; assay: Binding to chemically synthesized truncated stem I construct; details: truncated stem I construct of tyrS T-box
[4] = biological target: Bacillus subtilis glyQS T-box; assay: as above; details: truncated stem I construct of glyQS T-box
B. subtilis 168 [5] = assay: Minimum inhibitory concentration determination; assay type: cell-based, Bacillus subtilis
Protocol: (§1) The 96-well plate was organized as follows. Media (100 μl) were added to all wells.

[6] = tested on: J774.16 murine macrophages; assay: Trypan blue cell viability counting; assay type: cell-based; details: 48 hours
Protocol: J774.16 cells were grown in J7 medium from a fresh passage in a 1:4 dilution of 70 to 80% confluent cells. The cells were allowed to adhere in 6-well plates overnight. The medium was replaced, and drugs were added to desired concentrations in a total volume of 5 ml/well. A media control, untreated control, a killing control of Triton X-100, and a vehicle control were always included. After 48 hours treatment, medium was removed, and fresh media and Trypan blue were added 1:1 in a final volume of 400 μl. Cells, 100 to 200, from two areas of each well were counted and the data averaged and normalized against untreated cells. The vehicle control served as the 0.0-μg/ml value. At least three biological replicates were included for each drug at each concentration.

S. aureus 4220 = tested on: S. aureus 4220
Protocol: MICs were determined essentially as previously described (Frohlich KM, Weintraub SF, Bell JT, Todd GC, Väre VYP, Schneider R, Kloos ZA, Tabe ES, Cantara WA, Stark CJ, Onwuanaibe UJ, Duffy BC, Basanta-Sanchez M, Kitchen DB, McDonough KA, Agris PF. 2019. Discovery of small-molecule antibiotics against a unique tRNA-mediated regulation of transcription in Gram-positive bacteria. ChemMedChem 14:758-769.). In short, cultures were grown overnight in the appropriate media, diluted to A620 of 0.1, grown for 3 hours, and again diluted to A620 of 0.1. Cultures were then diluted 10-fold, of which 5 μl were added to each well of the 96-well plate used for the experiment except the media control wells. The initial well inoculum was 7.5×10^5 bacteria for S. aureus and 2.5×10^5 bacteria for B. subtilis (bacterial numbers were measured by OD). The 96-well plate was organized as follows. Media (100 μl) were added to all wells. Stock solutions (100 μi) containing 2 times the highest concentration of antibiotics to be tested were loaded to column 1, with two technical repeats per drug. […] The following controls were included: vehicle control (DMSO, chloroform, ethanol, etc.), cells in plain media, and media control (no cells). The initial optical density (A620) of the 96-well plate was determined, the plate was grown for 16 to 24 hours, and at that time, the final optical densities (A620) were read. The initial reading was subtracted from the final reading, and the technical replicates were averaged. MICs of PKZ18 and analogs were compared to clinically used antibiotics such as gentamicin.

[7] = tested on: S. aureus N315 (MRSA isolate); assay: Minimum inhibitory and bactericidal concentration determination; assay type: cell-based, Staphylococcus aureus
Protocol: as §1

E. coli = assay: Minimum inhibitory and bactericidal concentration determination, Gram-negative control; assay type: cell-based, Escherichia coli
Protocol: as §1

[8] = tested on: J774.16 murine macrophages; assay: alamarBlue cell redox activity; assay type: cell-based; details: for cellular redox activity: 64 μg/ml
Protocol: (§2) alamarBlue was purchased (Thermo Scientific) and used according to the manufacturer's directions. In short, 50,000 cells of either A549 or J774.16 were added into a 96-well plate in 200 μl and left to adhere overnight. As a control, we used a 96-well plate with the desired drugs at 2× the final concentrations in 160 μl without adding cells. The cells' medium was removed, and 100 μl fresh medium was added, followed by 100 μl of 2× drug from the corresponding wells in the drug plate. Media were added to the drug plate to reduce the concentrations to 1×, and the cells were incubated at 37° C. for 48 or 72 hours. alamarBlue was added at 10 μl per 100 μl, and the fluorescence of both plates at 590 nm was read after overnight incubation. The drug plate fluorescence was subtracted from the cells' plate respective values, and the data were normalized to untreated cells' reading. All plates included a vehicle control used as the 0-μg/ml value for each drug tested. All concentrations were tested in triplicate and included at least three biological replicates. A media control, untreated control, a killing control, and a vehicle control were always included. The cytotoxicity of synergistic or additive MICs of PKZ18 analogs and a common antibiotic (co-MIC) on eukaryotic cells was tested on A549 cells as above, but the two plates were set up identically to the checkerboard assay so that the final concentrations tested corresponded to those tested against MRSA.

[9] = tested on: A549 human lung epithelial cells; assay: alamarBlue cell redox activity; assay type: cell-based; details: 128 μg/ml, 48 hours
Protocol: as §2

[10] = tested on: planktonic growth of Staphylococcus
Protocol: An overnight culture of S. aureus (ATCC 29213) was diluted to 1×10^7 cells/mL in tryptic soy broth (TSB) supplemented with 10% human plasma (Innovative Research, Novi, Mich. USA) and added to the wells of an MBEC™-HTP Assay Biofilm Innoculator (Innovotech, Edmonton, AB, Canada). The plate was incubated overnight at 37° C. and shaken at 125 rpm. […] Control wells were without a COMPOUND OF Formula I. The treatment plate was incubated for 24 h at 37° C. after which the lid was removed, rinsed with PBS, and placed in a new 96-well plate containing TSB. The biofilm was removed from the assay lid into the recovery plate wells by sonication, a new plate cover was added, and the viability of the biofilm was determined after 24 h of incubation at 37° C. by reading the OD at 625 nm. Three independent experiments were conducted. Concentrations of interest were followed up with colony forming unit (CFU) recovery and scanning electron microscopy analysis. After conclusion of the MBEC assay, the minimum bactericidal concentration (MBC) was determined. The MBC is the lowest concentration of an antibacterial agent required to kill a particular bacterium. The peg lid from the MBEC assay was removed from the challenge plate and 20 μL of medium from each well of the challenge plate was removed and added to a new sterile 96-well plate filled with 180 μL TSB. […]

[11] = tested on: PKZRSA1 (PKZ18-22-resistant MRSA); assay: MICs against PKZ18-22-resistant mutant compared to WT MRSA; assay type: cell-based, Staphylococcus aureus
Protocol: as §1

[12] = tested on: S. aureus (ATCC 29213) biofilm; assay: MBEC-HTP biofilm model, single agents, CFU recovery; details: range of concentrations up to 1.024 mg/mL
Protocol: An overnight culture of S. aureus (ATCC 29213) was diluted to 1×10^7 cells/mL in tryptic soy broth (TSB) supplemented with 10% human plasma (Innovative Research, Novi, Mich. USA) and added to the wells of an MBEC™-HTP Assay Biofilm Innoculator (Innovotech, Edmonton, AB, Canada). The plate was incubated overnight at 37° C. and shaken at 125 rpm. […] Control wells were without a COMPOUND OF Formula I. The treatment plate was incubated for 24 h at 37° C. after which the lid was removed, rinsed with PBS, and placed in a new 96-well plate containing TSB. The biofilm was removed from the assay lid into the recovery plate wells by sonication, a new plate cover was added, and the viability of the biofilm was determined after 24 h of incubation at 37° C. by reading the OD at 625 nm. Three independent experiments were conducted. Concentrations of interest were followed up with colony forming unit (CFU) recovery and scanning electron microscopy analysis. After conclusion of the MBEC assay, the minimum bactericidal concentration (MBC) was determined. […]
After rinsing in PBS, designated pegs were snapped off the lid using sterile tweezers and placed in 1.5 mL Eppendorf tubes containing 200 μL PBS. […] The plates were then imaged and colonies counted on a ColonyDoc-It™ Imaging station (UVP, Analytik Jena, Beverly, Mass., USA).

[13] = similarly sized construct with gly codon but lacking the specifier loop
[14] = wild-type truncated glyQS stem I with the specifier loop

## Cc1sc(NC(=O)C2C3CCC(C3)C2C(=O)O)nc1-c1ccc(C(C)C)cc1 (centres unmarked) [PKZ18-00]
[1]; [13]
  change in melting temperature ΔTm: −0.33
  free energy ΔΔG: +0.22
[1]; [14]
  change in melting temperature ΔTm: −18.52 °C
  free energy ΔΔG: +3.41 kcal mol^−1
S. aureus N315 (MRSA)
  resistant colonies: No PKZ18-resistant colonies were found
glyQS T-box; Table 1
  T-Box targeting: Yes
glyQS T-box; Table 2
  T-Box targeting: Yes
B. subtilis 168 [2]
  resistant colonies: did not generate resistant colonies
[3]
  dissociation constant: low micromolar
[4]
  dissociation constant: low micromolar
B. subtilis 168 [5]; B. subtilis 168
  fold lower MIC in minimal versus rich media: 8 fold
B. subtilis 168 [5]; minimal media
  MIC against B. subtilis 168 in minimal media: 8 µg/mL (≈ 20.1 µM)
B. subtilis 168 [5]; rich media
  MIC against B. subtilis 168 in rich media: 64 µg/mL (≈ 161 µM)
[6]; 64 μg/ml
  cell viability: 76%
[6]; 128 μg/ml
  macrophage viability: 25%
S. aureus 4220; S. aureus 4220
  fold lower MIC in minimal versus rich media: 4 fold
S. aureus 4220; S. aureus 4220, minimal media
  MIC against S. aureus in minimal media: 16^a μg/ml
S. aureus 4220; S. aureus 4220, rich media
  MIC against S. aureus in rich media: 64^a μg/ml
[7]; Table 2
  MIC S. aureus N315: 64 µg/mL (≈ 161 µM)
[7]; Table 2, value in parentheses
  MBC S. aureus N315: > 256 µg/mL
E. coli
  MIC E. coli: > 256 µg/mL
E. coli; value in parentheses
  MBC E. coli: > 256 µg/mL
[8]; 48 hours
  cellular redox activity: increased
[8]; 72 hours
  cellular redox activity: decreased
[8]; 128 μg/ml, 48 hours
  redox activity: near-total reduction
[9]
  redox activity: near-total reduction

## CN[C@H](CC(C)C)C(=O)N[C@H]1C(=O)N[C@@H](CC(N)=O)C(=O)N[C@H]2C(=O)N[C@H]3C(=O)N[C@H](C(=O)N[C@H](C(=O)O)c4cc(O)cc(O)c4-c4cc3ccc4O)[C@H](O)c3ccc(c(Cl)c3)Oc3cc2cc(c3O[C@@H]2O[C@H](CO)[C@@H](O)[C@H](O)[C@H]2O[C@H]2C[C@](C)(N)[C@H](O)[C@H](C)O2)Oc2ccc(cc2Cl)[C@H]1O [vancomycin]
[10]
  planktonic growth over a range of concentrations: no growth
[11]
  fold increase in MIC against PKZRSA1 compared to WT: 2 fold
[12]
  MBEC efficacy at highest concentration: not effective
